Results reported in PMC6021502, “Cannabigerol Action at Cannabinoid CB1 and CB2 Receptors and at CB1–CB2 Heteroreceptor Complexes” (Frontiers in Pharmacology, 2018).
“Also recorded” adds a separate entry of the source. Read-outs that look alike come from different tables or passages of the source.

What was measured:
experimental colitis = system: experimental colitis; design: method as in Borrelli et al., 2013; conditions: model of inflammatory bowel disease; ref Borrelli et al., 2013; cited from earlier work
CB1R = system: T1, CB1R; assay: Overall signalling profile (cAMP, MAPK, β-arrestin, DMR) in HEK-293T cells; format: cell-based, human; conditions: HEK-293T cells expressing CB1R
T1 construct: expressed in transfected cells; host or cells: HEK-293T, transient transfection (PEI)
Method: (§1) HEK-293T cells were grown in DMEM medium (Gibco, Paisley, Scotland, United Kingdom) supplemented with 2 mM L-glutamine, 100 U/mL penicillin/streptomycin, MEM Non-Essential Amino Acids Solution (1/100) and 5% (v/v) heat inactivated Foetal Bovine Serum (FBS) (Invitrogen, Paisley, Scotland, United Kingdom). […] Cells were transiently transfected with the PEI (Polyethylenimine, Sigma, St. Louis, MO, United States) method as previously described ([Medrano et al., 2017]; [Navarro et al., 2018b]) and used for functional assays 48 h later (unless otherwise stated).
(§2) Signaling experiments have been performed as previously described ([Navarro et al., 2010], [2016], [2018b]; [Hinz et al., 2018]). […] Readings were performed after 15 min incubation at 25°C. […] Fluorescence at 665 nm was analyzed in a PHERAstar Flagship microplate reader equipped with an HTRF optical module (BMG Lab Technologies, Offenburg, Germany).
(§3) To determine ERK1/2 phosphorylation, 50,000 HEK-293T cells/well were plated in transparent Deltalab 96-well microplates and kept at the incubator for 24 h. […] 10 μL of each supernatant were placed in white ProxiPlate 384-well microplates and ERK 1/2 phosphorylation was determined using AlphaScreen®SureFire® kit (Perkin Elmer) following the instructions of the supplier and using an EnSpire® Multimode Plate Reader (PerkinElmer, Waltham, MA, United States). […]

CB2R [1] = system: T2, CB2R; assay: as above; format: cell-based, human; conditions: HEK-293T cells expressing CB2R
T2 construct: expressed in transfected cells; host or cells: HEK-293T, transient transfection (PEI)
Method: as §1, §2, §3

PPARγ = target: PPARγ; design: method as in Granja et al., 2012; Nadal et al., 2017; conditions: ref Granja et al., 2012; Nadal et al., 2017; cited from earlier work
[2] = system: T3, CB1R and CB2R (CB1–CB2 heteroreceptor complexes); assay: Label-free dynamic mass redistribution (DMR) in HEK-293T cells co-expressing both receptors; format: cell-based, human
T3 construct: expressed in transfected cells; host or cells: HEK-293T, transient co-transfection (PEI)
Method: as §1
Cell mass redistribution induced upon receptor activation was detected by illuminating the underside of a biosensor with polychromatic light and measuring the changes in the wavelength of the reflected monochromatic light. The magnitude of this wavelength shift (in picometers) is directly proportional to the amount of DMR. […] Hereafter, the sensor plate was scanned and a baseline optical signature was recorded for 10 min before adding 10 μL of CBG for 30 min followed by the addition of 10 μL of specific agonists; all test compounds were dissolved in assay buffer. The cell signaling signature was determined using an EnSpire® Multimode Plate Reader (PerkinElmer, Waltham, MA, United States) by a label-free technology. Then, DMR responses were monitored for at least 5,000 s. Results were analyzed using EnSpire Workstation Software v 4.10.

AEA cell uptake = system: AEA cell uptake; design: method as in De Petrocellis et al., 2011; conditions: ref De Petrocellis et al., 2011; read-out: Ki, inhibitor of AEA cell uptake; cited from earlier work
CB2R [3] = system: T2, CB2R; assay: β-arrestin 2 recruitment (BRET) in HEK-293T cells; format: cell-based, human
Method: as §1
Arrestin recruitment was determined as previously described ([Medrano et al., 2017]; [Navarro et al., 2018b]). Briefly, BRET experiments were performed in HEK-293T cells 48 h after transfection with the cDNA corresponding to the CB2R-YFP or CB1R-YFP and 1 μg cDNA corresponding to β-arrestin 2-Rluc. Cells (20 μg protein) were distributed in 96-well microplates (Corning 3600, white plates with white bottom) and were incubated with CBG for 15 min and stimulated with the agonist for 10 min prior the addition of 5 μM coelenterazine H (Molecular Probes, Eugene, OR, United States). After 1 min of adding coelenterazine H, BRET between β-arrestin 2-Rluc and receptor-YFP was determined and quantified. The readings were collected using a Mithras LB 940 (Berthold Technologies, Bad Wildbad, Germany) that allows the integration of the signals detected in the short-wavelength filter at 485 nm and the long-wavelength filter at 530 nm. To quantify protein-RLuc expression luminescence readings were also performed 10 min of adding 5 μM coelenterazine H.

macrophages = system: macrophages; design: method as in Giacoppo et al., 2017; conditions: in vitro; blocked by AM630, not by SR141716A; ref Giacoppo et al., 2017; cited from earlier work
human CB2 receptor = target: T4, human CB2 receptor (Homo sapiens, UniProt P34972); assay: [3H]-WIN-55,212-2 competition binding, CHO membranes
T4 construct: expressed in transfected cells; membranes
T4 sequence (P34972 whole entry): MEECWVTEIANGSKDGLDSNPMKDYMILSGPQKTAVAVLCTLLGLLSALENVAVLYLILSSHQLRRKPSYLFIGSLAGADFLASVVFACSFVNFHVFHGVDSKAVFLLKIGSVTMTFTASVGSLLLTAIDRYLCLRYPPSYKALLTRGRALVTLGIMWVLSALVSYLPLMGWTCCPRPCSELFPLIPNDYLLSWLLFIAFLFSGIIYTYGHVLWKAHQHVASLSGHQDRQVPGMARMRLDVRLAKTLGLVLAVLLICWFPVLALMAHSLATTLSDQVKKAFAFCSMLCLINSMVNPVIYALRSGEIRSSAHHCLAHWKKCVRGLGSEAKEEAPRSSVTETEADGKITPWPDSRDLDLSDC

human CB1 receptor = target: T5, human CB1 receptor (Homo sapiens, UniProt P21554); assay: biochemical; format: binding
T5 construct: expressed in transfected cells; membranes
T5 sequence (P21554 whole entry): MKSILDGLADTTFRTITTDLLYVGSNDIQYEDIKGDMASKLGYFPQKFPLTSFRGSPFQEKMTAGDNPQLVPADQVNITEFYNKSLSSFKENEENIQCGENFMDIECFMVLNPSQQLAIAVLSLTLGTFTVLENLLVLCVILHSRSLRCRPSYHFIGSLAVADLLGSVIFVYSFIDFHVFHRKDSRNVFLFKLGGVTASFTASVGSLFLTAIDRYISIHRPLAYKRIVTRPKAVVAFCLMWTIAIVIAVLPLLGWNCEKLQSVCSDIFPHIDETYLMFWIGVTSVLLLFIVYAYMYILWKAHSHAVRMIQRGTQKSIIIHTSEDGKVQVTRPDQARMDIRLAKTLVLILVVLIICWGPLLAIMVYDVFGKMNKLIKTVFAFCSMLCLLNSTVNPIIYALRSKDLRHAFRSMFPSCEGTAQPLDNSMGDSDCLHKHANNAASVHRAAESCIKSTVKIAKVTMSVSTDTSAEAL

**Q.** For `CCCCCc1cc(O)c(C/C=C(\C)CCC=C(C)C)c(O)c1` [CBG, cannabigerol], which “Effect on experimental colitis” value (experimental colitis) is on record?
**A.** reduce the histological and molecular changes of experimental colitis

**Q.** And the “Pharmacological profile at CB1R” value (CB1R)?
**A.** poor agonist of CB1R

**Q.** What about the “Pharmacological profile at CB2R” value (CB2R [1]) of the same molecule?
**A.** partial agonist of the CB2R

**Q.** What about the Ki (PPARγ) of the same molecule?
**A.** 11.7 µM

**Q.** What about the “Effect on agonist actions on DMR read-outs” value ([2]; 100 nM CBG pretreatment, cells co-expressing CB1R and CB2R) of the same molecule?
**A.** negative modulation of the ACEA effect on ERK1/2 phosphorylation and DMR, and of the AEA effect on DMR read-outs

**Q.** What about the DMR signal ([2]; CBG alone, dose-effect, cells expressing CB1R and CB2R) of the same molecule?
**A.** additive

**Q.** What about the Ki (AEA cell uptake) of the same molecule?
**A.** 11.3 µM

**Q.** And the “Effect on β-arrestin recruitment induced by agonists” value (CB2R [3]; 100 nM or 1 μM CBG, 100 nM AEA or JWH133, CB2R)?
**A.** did not affect

**Q.** What about the β-arrestin recruitment (CB2R [3]; CBG alone, 1 nM to 10 μM, CB2R-expressing cells) of the same molecule?
**A.** noteworthy

**Q.** What about the “Protection of macrophages against oxidative stress” value (macrophages) of the same molecule?
**A.** protection of macrophages against oxidative stress

**Q.** What about the Ki (human CB2 receptor; radioligand 3 nM [3H]-WIN-55,212-2, CHO membranes, read-out: CB2 – Ki) of the same molecule?
**A.** 2.66 µM

**Q.** And the Ki (human CB2 receptor; radioligand [3H]-WIN-55,212-2, read-out: Ki, competition of [3H]-WIN-55,212-2 binding to CB2R)?
**A.** 2.7 µM

**Q.** What about the “Displacement of [3H]-WIN-55,212-2 from CB1R” value (human CB1 receptor) of the same molecule?
**A.** not able to displace the radioligand; also recorded: unable to compete

**Q.** What about the Ki (human CB1 receptor) of the same molecule?
**A.** > 30 µM
